melting point [°C]	SMILES
213 to 214	NS(=O)(=O)c1cc(CO)cc(NCc2ccccc2)c1S(=O)c1ccccc1 (centres undefined)
160	CCOC(=O)CC1=COc2ccc(O)cc2O1
135	CCCCN(CCCC)CCCOc1ccc(C(=O)c2c(C)oc3c(NS(C)(=O)=O)cccc23)cc1
196 to 197	CCC(C)(C)Nc1c(NCc2ccc(Cl)cc2Cl)c(=O)c1=O
65 to 66	COc1ccc(OC)c(-c2ccc(C)cc2)c1
106 to 108	CCN(CC)c1nc2cc(C)nn2c2c1cnc1c2cnn1CC
62 to 63	COc1cc2ccc(C)cc2c(C(C)C)c1OC
96 to 97	CC(=O)N[C@@H](Cc1ccc2ccccc2c1)C(=O)OCc1cc(C)cc(C)c1
114	COC(=O)c1cc(Cl)ccc1NC(=O)N(C)C
85 to 87	CCCCOC(=O)c1ccccc1-c1ccc(Cn2c(CCC)nc(C(C)(C)O)c2C(=O)OCOC(=O)OC(C)C)cc1
43 to 45	O=C(C(=O)N(CC(F)(F)F)S(=O)(=O)C(F)(F)F)N(CC(F)(F)F)S(=O)(=O)C(F)(F)F
173	CC(C)(C)Cc1nc2cc(S(=O)(=O)c3ccccc3)ccc2n1CC1CC1
47	CCCCSN(C)C(=O)Nc1ccc(Cl)c(Cl)c1
87.3 to 89.3	O=[N+]([O-])c1ccc(Oc2cccc3ccccc23)nc1
164 to 168	COc1ccc(O)c(C2(NCC(C)=O)Sc3ccccc3N(C)C2=O)c1 (centres undefined)
116	CCCOc1ccccc1-c1nc(O)cc(Cl)n1
142 to 143	Cc1cc2oc(C#N)cc(=O)c2c(C)c1Cl
83 to 84	C[C@@H](Cc1c2n(c3ccc(OC4CC4)cc13)CCC2)NC(=O)OC(C)(C)C
134 to 135	CCn1nc2c(N)nc(C)cc2c1CC(C)(C)O
135 to 138	Clc1ccc(Nc2nc3ccccc3c3c2ncn3-c2ccco2)cc1Cl
230 to 232	Cc1c[nH]c(=O)c(NC(=O)c2ccccc2F)c1
155 to 157	CCCc1nc(C(C)(C)O)c(C(=O)O)n1Cc1ccc(-c2ccccc2C(=O)OC(C)(C)C)cc1
233 to 235	COCCOCOc1c(C(C)(C)C)cc(-c2nc(N)n[nH]2)cc1C(C)(C)C
82 to 84	CC(C)NCC(O)COc1ccccc1C1=NN(C)C(=O)CC1 (centres undefined)
95 to 97	O=C(O)[C@@H]1CSC(=O)N1Cc1ccccc1

melting point [°C]	SMILES
206	CC(C)[C@H](NC(=O)OCc1ccccc1)C(N)=O
148 to 149	Cc1cc(OCc2cnc(-c3ccc(C(F)(F)F)cc3)cc2C(F)(F)F)ccc1OC(C)(C)C(=O)O
120 to 122	N#Cc1cncc(I)c1Cl
222 to 224	O=c1cc(-c2ccccc2)c2c(OCc3nnn[nH]3)cc(OCc3nnn[nH]3)cc2o1
> 300	N#Cc1ccc(-c2cn(-c3ccc(C#N)cc3)c(SCCO)n2)cc1
138 to 139	Cc1ccc(S(=O)(=O)c2ncc(I)cn2)cc1
165 to 167	CCCCOCCOc1ccc(-c2ccc3c(c2)C=C(C(=O)Nc2ccc(CCCn4cnnc4)cc2)CCN3CC(C)C)cc1
67 to 70	C#CCSc1nc(Cl)cc(Cl)n1
147 to 148	O=C(O)CCc1cn(Cc2ccc(OCc3ccc4ccccc4n3)cc2)nc1-c1ccccc1
45 to 50	CCC(C)(C)CNc1c(N=O)c(C)nn1C
154 to 156	O=C(c1ccc(Cl)cc1)c1cccnc1N1CCCCC1=O
156 to 157	COC(=O)Cc1cccc2c1NC(=O)C2
139 to 140	CCCCC1Oc2cc(C(=O)OC)ccc2NC1=O (centres undefined)
91 to 92	CCC(=O)c1cc2c(s1)CCCN(CCCCCl)C2=O
120 to 122	Clc1nc2ccccc2c2occc12
45 to 47	CCCCN(CCO)c1cccc(O)c1
118 to 120	CN(C)C(=O)CON(Cc1ccc(F)cc1)C(=O)C=C(O)C(=O)O
198 to 200	COc1cc(Nc2c(C#N)cnc3cc(-c4ccc(CN5CCOCC5)c(CN5CCOCC5)c4)ccc23)c(Cl)cc1Cl
259 to 261	c1ccc(-c2cc3ncnc(Nc4ccc(NCc5c[nH]c6ccccc56)cc4)c3s2)cc1
90 to 93	OCc1nc(Cl)cc(N2CCCC2)n1
208 to 211	CN1CCN(CCCNc2ncc3cc(-c4c(Cl)cccc4Cl)c(N)nc3n2)CC1
71 to 72	Cc1oc(-c2ccccc2)nc1CCc1noc(CCl)n1
72 to 78	O=C(Nc1ccccc1)OCC1(COC(=O)Nc2ccccc2)CS(=O)(=O)c2ccccc2C1=O
224 to 226	Cc1ccc(Nc2c([N+](=O)[O-])cc(C(=O)O)cc2S(N)(=O)=O)c(C)c1
138 to 140	Cn1nc(C(F)(F)F)nc1Oc1cc(On2c(=O)cc(C(F)(F)F)n(C)c2=O)c(F)cc1Cl

melting point [°C]	SMILES
96 to 98	COc1ccc2cc(OCc3ccccc3)c(C(=O)OCc3ccccc3)cc2c1
127 to 129	O=C(O)CCCCCOc1ccc(C2OC3C(CO)OC(n4cnc5c(Cl)ncnc54)C3O2)cc1 (centres undefined)
236 to 237	O=C(O)c1nn(Cc2ccccc2)c2c1CCc1cc(OCc3cncnc3)ccc1-2
39 to 41	CCOC(=O)COc1ccc2c(c1)CCCC2=O
58 to 60	CSC(c1ccc(Cl)cc1)C(C(O)C(C)(C)C)n1cncn1 (centres undefined)
195 to 198	CC1(C)CCC(C)(C)c2cc(COc3ccc(C(=O)O)cc3-c3ccccc3)ccc21
164 to 166	O=C(O)C(=O)C12CC3CC(CC(O)(C3)C1)C2
128 to 133	CC(C)CN1CCC(CNC(=O)c2cc(Cl)c(N)[nH]c2=O)CC1
185 to 186	CCN1CCCC1CNC(=O)c1cc(Cl)c(O)cc1OC (centres undefined)
173 to 175	CCC(=Nc1ccc2nc(N3CCN(C)CC3)c(N3CCN(C)CC3)nc2c1)N(C)C
193 to 195	COc1ncnc(OC)c1NC(=O)CCl
64 to 66.5	O=C(COC(F)(F)F)Nc1ccccc1
240 to 243	O=c1c2ccccc2nc(-c2cc(-c3ccc(Cl)cc3)c(N3CCOCC3)s2)n1-c1ccc(Cl)cc1
62 to 65	COC(=O)C(CCCCNC(=O)COCc1ccccc1)NC(=O)COCc1ccccc1 (centres undefined)
85 to 87	CCOC(=O)C=Cc1cccnc1OCc1ccc(OCc2nc(-c3ccco3)oc2C)c(OC)c1
> 260	Cc1nc2ccc(C(=O)O)nc2n1Cc1ccc(Cl)cc1Cl
157 to 159	CSc1ccc(C(=O)Nc2c(Cl)cncc2Cl)cc1OC1CCCC1
85 to 88	c1cnc(N2CCN(CCCCn3cnc4ccccc43)CC2)nc1
95 to 100	C#CCOCC(C)(COCC#C)NC(=O)C(Oc1ccc2ncc(C#C)cc2c1)SC (centres undefined)
144 to 148	CC(C)C1(C)NC(c2ncccc2C#N)=NC1=O (centres undefined)
246 to 247	Cc1ccc(-c2ccc(C(=O)Nc3ccc4nc(CN5C(C)(C)CCCC5(C)C)ccc4c3)cn2)cc1
104 to 105	COC(=O)COc1ccc(NC(=O)c2cc(C(C)C)c(C(C)C)o2)cc1
299 to 302	C=C1SC(=O)N(c2ccc3cc(-c4ccc(O)c(C56CC7CC(CC(C7)C5)C6)c4)ccc3c2)C1=O
94 to 96	COc1ccc(C2(O)CCC3(CC2)OCCO3)c2c1OCCO2
226	CC(C)(C)OC(=O)Nc1cccc(Cn2nc(C(=O)O)c3c2-c2ccc(OCc4cncnc4)cc2CC3)c1

melting point [°C]	SMILES
184	CC(C)[C@H](NC(=O)OCc1ccccc1)C(=O)NC(Cc1ccccc1)C(O)C(Cc1ccccc1)NC(=O)[C@@H](NC(=O)OC(C)(C)C)C(C)C (some centres undefined)
124	CCn1c(Nc2ccc(C(F)(F)F)cc2C(F)(F)F)nc(C(F)(F)F)c(Cl)c1=O
> 380	O=C(O)c1cccc(N2C(=O)c3ccc(C(=O)O)cc3C2=O)c1
> 220	C=Cc1cc2c(c3ccc(O)cc13)OCc1cc(O)ccc1-2
85	CP(C)(=O)COC(=O)c1ccccc1Nc1cccc(C(F)(F)F)c1
222 to 223	CC(CO)n1nc(-c2cnc(N)nc2-c2ccccc2)ccc1=O (centres undefined)
277 to 278	COc1cccc([C@H]2O[C@H](CC(=O)Nc3nc(C(=O)O)cs3)C(=O)N(CC(C)(C)CO)c3ccc(Cl)cc32)c1OC
174 to 176	Cn1c2c(ccc1=O)C(=O)CCC2
227 to 229	O=C(NCCO)c1ccc(C(=O)NCCO)cc1
175	Nc1ncnc2c1nc(NCCP(=O)(O)O)n2C1OC(CO)C(O)C1O (centres undefined)
162 to 165	O=C(O)C1=Cc2cc(C(F)(F)C(F)(F)F)ccc2OC1C(F)(F)F (centres undefined)
122 to 123	CC(C)(C)OC(=O)COC1CCN(C(=O)[C@H](Cc2ccc(OC(C)(C)C)cc2)NC(=O)c2ccc(C#N)cn2)CC1
186 to 188	CN(CC(=O)OC(C)(C)C)c1nccc(-c2nc(=O)c3ccccc3s2)n1
79 to 82	CCOC(=S)c1cc(Cl)c(C)c(-c2cc(C)no2)c1C
162 to 165	CC(C)OC(=O)c1ccc(Nc2cccc(Br)c2)c([N+](=O)[O-])c1
203 to 205	N#Cc1c(-c2cccc(CN)c2)cc(-c2ccccc2O)nc1NC(=O)c1cccs1
> 250	Nc1nc(N)c2c(CCCc3ccc(C(=O)N[C@@H](CCC(=O)O)C(=O)O)cc3)cnc-2[nH]1
136 to 137	C=CC1(N)CN=C(c2ccc(Cl)c(N(C)C)c2F)N=C1C(=O)OC (centres undefined)
198 to 204	O=C1OC(=Cc2ccc(Cl)c([N+](=O)[O-])c2)c2ccccc21
136 to 138	CC1(C)CC(NC(=O)CCC(=O)O)CC(C)(C)N1OC1CCCCC1
78 to 81	O=C1c2cc(F)ccc2CCc2cccnc21
136 to 137	O=C(c1ccc(C(=O)N2CCC[C@@H]3CCCC[C@H]32)cc1)N1CCCCC1 (relative stereo)

SMILES	melting point [°C]
C=CCNCc1noc(-c2ncn3c2CN(C)C(=O)c2c(Cl)cccc2-3)n1	171 to 174
N#CCN1C2CCC1CC(OC(c1ccccc1)c1ccccc1)C2 (centres undefined)	94 to 97
